What all share (assay): Differential scanning fluorometry (DSF) Tm shift with purified STING AA140-379
Holding throughout (assay type): binding
A general note: Differential scanning fluorimetry follows unfolding on heating by fluorescence.

For assay [1], the target named is T1, hSTING WT (Homo sapiens, UniProt Q86WV6, H232R).
T1 construct: DNA encoding amino acids 140-379 (amino acid numbering corresponding to Swiss Prot Q86WV6); 6xHIS-SUMO (with TEV site) (N, cleaved yes); made in house; host or cells: Rosetta2 (DE3) E. coli
T1 sequence (Q86WV6 140-379 H232R): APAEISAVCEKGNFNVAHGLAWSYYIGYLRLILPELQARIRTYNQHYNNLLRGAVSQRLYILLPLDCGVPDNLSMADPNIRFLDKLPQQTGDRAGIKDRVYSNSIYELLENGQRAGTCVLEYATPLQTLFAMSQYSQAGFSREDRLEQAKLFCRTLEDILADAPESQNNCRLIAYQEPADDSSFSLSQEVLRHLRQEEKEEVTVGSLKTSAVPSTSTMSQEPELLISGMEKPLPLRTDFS
The settings on record: ligand 1 mM, 1 mg/ml STING AA140-379. From the text:
(§1) DNA encoding amino acids 140-379 (amino acid numbering corresponding to Swiss Prot Q86WV6) was amplified from plasmids containing the full length sequence of human STING alleles via polymerase chain reaction with the following primers: forward […] (SEQ ID NO: 9) and reverse […] (SEQ ID NO: 10). STING variant alleles were assigned according to Yi, et al, (2013), PLoS One, 8(10), e77846 (DOI: 10.1371/journal.pone.0077846. PCR products were cloned into bacterial expression vector encoding a N-terminal hexa-histidine affinity tag (6×HIS) followed by a small ubiquitin-like modifier (SUMO) solubility sequence (Butt, et al, (2005) Protein expression and purification 43.1, 1-9) and tobacco etch virus protease cleavage site (TEV) using ligation independent cloning (Aslanidis, et al, (1990) Nucleic acids research, 18.20, 6069-6074).
(§2) Plasmids encoding 6×HIS-SUMO-TEV-STING amino acids 140-379 were transformed into Rosetta2 (DE3) E. coli cells (EMD Millipore) for protein expression. Cells were grown in lysogeny broth at 37° C. until a […] absorbance of 0.6 was reached. Cells were then transferred to 18° C. and protein expression was induced overnight by the addition of isopropyl β-D-1-thiogalactopyranoside to the media at a concentration of 0.25 mM. Cells were harvested by centrifugation at 6,000 times gravity for 10 minutes. Cell pellets were re-suspended on ice in a buffer containing 50 mM Tris hydrochloride (Tris-HCl) pH 7.5, 500 mM sodium chloride (NaCl), 20 mM imidazole, 10% glycerol, 1 mM tris(2-carboxyethyl)phosphine hydrochloride (TCEP) and protease inhibitor tablet (Pierce) (Buffer A). Cells were lysed using an S-450D sonifier (Emmerson industrial) on ice. Cell lysate was centrifuged at 15,000 times gravity for 30 minutes at 4° C. Soluble material was applied to nickel-nitrilotriacetic acid (Ni-NTA) coupled Sepharose CL-6B (Qiagen) for 1 hour with gentle rocking at 4° C. After transfer to a gravity flow poly-prep column (Bio-Rad), resin was washed extensively in buffer A. Protein was eluted from the column in a buffer containing 20 mM Tris-HCl pH 7.5, 150 mM NaCl, 300 mM imidazole, 10% glycerol and 0.5 mM TCEP. To remove the 6×HIS-SUMO tag eluted protein was mixed with TEV protease (Sigma) at a ratio of 1:250 (w:w) and dialyzed overnight against a buffer containing 20 mM Tris-HCl pH 7.5, 150 mM NaCl, 5 mM imidazole, 10% glycerol and 0.5 mM TCEP. TEV protease and 6×HIS-SUMO tags were depleted by the addition of Ni-NTA resin (Qiagen) to the sample, purified STING amino acids 140-379 was collected by removal of the resin using a poly-prep column STING AA140-379 was concentrated with a 10,000 Dalton molecular weight cutoff centrifuge concentrator (EMD Millipore) to a final concentration of approximately 10 mg/ml. Protein was aliquoted, flash frozen in liquid nitrogen and stored at −80° C. until use.
(§3) Differential scanning fluorometry (DSF) is a technique that measures the ability of ligands to bind to and stabilize purified proteins (Niesen, et al, (2007) Nature protocols 2.9, 2212-2221). The protein is heated in the presence of a dye that binds to and fluoresces in hydrophobic environments. The protein is thermally denatured by heating resulting in increased dye binding to the unfolded protein and fluorescence. The temperature midpoint (Tm) of a proteins denaturation is established by calculating the half maximal value of the denaturation curve. The temperature midpoint of the protein in the presence of a ligand is directly related to the affinity of the ligand for the protein and therefore its ability to stabilize the protein at higher temperatures.
(§4) DSF was performed in a 20 μL reaction comprising 20 mM Tris-HCl pH 7.5, 150 mM NaCl, 1:500 dilution of SYPRO Orange (Life Technologies), 1 mg/ml purified STING AA140-379 protein and ligand at a concentration of 1 mM. Wild type hSTING, HAQ allele hSTING and/or REF allele hSTING were used with scaffold molecules of the invention as listed in Table 2.

For assay [2], the target named is T2, hSTING HAQ allele (Homo sapiens, UniProt Q86WV6, G230A/H232R/R293Q).
T2 construct: DNA encoding amino acids 140-379 (amino acid numbering corresponding to Swiss Prot Q86WV6); 6xHIS-SUMO (with TEV site) (N, cleaved yes); made in house; host or cells: Rosetta2 (DE3) E. coli
T2 sequence (Q86WV6 140-379 G230A/H232R/R293Q): as the sequence (Q86WV6 140-379 H232R) above, with G91A, R154Q counted along it
The conditions noted are these: DSF, ligand 1 mM, 1 mg/ml STING AA140-379; read-out: hSTING Tm Shift HAQ.
Excerpt: as §1, §2, §3, §4

Assay [3] deals with T3, hSTING REF allele (Homo sapiens, UniProt Q86WV6).
T3 construct: DNA encoding amino acids 140-379 (amino acid numbering corresponding to Swiss Prot Q86WV6); 6xHIS-SUMO (with TEV site) (N, cleaved yes); made in house; host or cells: Rosetta2 (DE3) E. coli
T3 sequence (Q86WV6 140-379): as the sequence (Q86WV6 140-379 H232R) above, with R93H counted along it
The settings on record: ligand 1 mM, 1 mg/ml STING AA140-379.
Excerpt: as §1, §2, §3, §4

SMILES strings stand for the structures.

With `Nc1ccn([C@@H]2O[C@@H]3CO[P@@](=O)(S)O[C@H]4[C@@H](F)[C@H](n5cnc6c(N)ncnc65)O[C@@H]4CO[P@@](=O)(S)O[C@H]3[C@H]2F)c(=O)n1` [Compound 37, 4-amino-1-((2R,3R,3aR,5R,7aR,9R,10R,10aR,12R,14aR)-9-(6-amino-9H-purin-9-yl) 3,10-difluoro-5,12-dimercapto 5,12-dioxidooctahydro-2H,7H-difuro[3,2-d:3′,2′-j][1,3,7,9]tetraoxa[2,8]diphosphacyclododecin-2-yl)pyrimidin-2(1H)-one], in assay [1], the “hSTING Tm Shift WT” value worked out at 8.2 °C. Also, the ΔTm at 1000 µM in assay [2] was 10.3 °C. Moreover, in assay [3], the “hSTING Tm Shift REF” value came to 7.5 °C.

These data come from US20180369268A1, “METHODS FOR IDENTIFYING INHIBITORS OF "STIMULATOR OF INTERFERON GENE"- DEPENDENT INTERFERON PRODUCTION” (ADURO BIOTECH, INC., priority 2015, published 2018).
